Here are results for three molecules from publication PMC5852967, “Specific features of L-histidine production by Escherichia coli concerned with feedback control of AICAR formation and inorganic phosphate/metal transport” (Microbial Cell Factories, 2018).

Holding throughout (format): biochemical
The target of assay [1] is T1, HisG^E271K feedback-resistant ATP-phosphoribosyltransferase (Escherichia coli, UniProt P60757, E271K).
T1 construct: His6-tagged HisG^E271K (HT-HisG^E271K)
The assay can be described thus: PR-ATP formation at […] nm with purified enzyme; % inhibition at […]. As to conditions: read-out: Inhibition, % / AICAR / 1 mM.

Assay [2] concerns the target T2, ATP-phosphoribosyltransferase (ATP-PRT, HisG) (Escherichia coli, UniProt P60757).
T2 construct: N-terminal His6-Tag HisG (HT-HisG)
T2 sequence (P60757 1-299): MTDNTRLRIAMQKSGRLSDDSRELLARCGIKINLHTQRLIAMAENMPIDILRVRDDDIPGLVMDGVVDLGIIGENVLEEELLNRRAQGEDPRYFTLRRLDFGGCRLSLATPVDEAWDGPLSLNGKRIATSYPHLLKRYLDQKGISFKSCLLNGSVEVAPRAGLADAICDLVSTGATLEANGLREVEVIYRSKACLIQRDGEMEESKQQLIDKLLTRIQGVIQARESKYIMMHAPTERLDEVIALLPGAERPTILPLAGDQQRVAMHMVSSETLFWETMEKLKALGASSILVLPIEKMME
Description: PR-ATP formation at […] nm with purified enzyme; Lineweaver–Burk plot.

In assay [3] the target is T2, ATP-phosphoribosyltransferase (ATP-PRT, HisG). Description: PR-ATP formation at […] nm from ATP and PRPP with purified enzyme.

By Ki is commonly meant a measure of affinity in units of concentration, obtained from inhibition or displacement. The low end stands for a stronger hold on the target, the high end for a looser hold on the target. `NC(=O)c1ncn([C@@H]2O[C@H](COP(=O)(O)O)[C@@H](O)[C@H]2O)c1N` [AICAR, 5-aminoimidazole-4-carboxamide-1-beta-D-ribofuranosyl 5′-monophosphate]: the inhibition at 1000 µM in assay [1] was 52%. Further, in assay [2], affinity was put at a Ki of 650 µM.

On to `Nc1ncnc2c1ncn2[C@@H]1O[C@H](COP(=O)(O)O)[C@@H](O)[C@H]1O` [AMP], for which the inhibition constant (Ki) in assay [2] amounted to 2150 µM.

Turning to `Nc1ncnc2c1ncn2[C@@H]1O[C@H](COP(=O)(O)OP(=O)(O)OP(=O)(O)O)[C@@H](O)[C@H]1O` [ATP], in assay [3], the “PR-ATP formation at 290 nm from ATP and PRPP with purified enzyme” value is recorded as “Both tested substances compete with ATP in HisG-catalyzed reactions”.
